# Measurements reported in patent US9827292B2, “Use of KGF in the treatment of menopausal disorders” (Università degli Studi di Roma “La Sapienza”, priority 2012, dated 2017).
# Experiment: In vitro release test of Pluronic F127 hydrogel with model molecules
# Type: physicochemical
# Settings: F127 20% w/v, 60 ml H2O, 37° C., FIG. 6D
# Experimental: 2 mL of loaded hydrogel containing 4 mg of myoglobin or prednisolone in a solution of 20% Pluronic F127 w/v were introduced into a dialysis membrane bag (MWCO 3500 Da), and the dialysis bag sealed at the end was incubated in 60 mL of release medium (distilled water) at 37° C. and was stirred at a rate of 50 rpm. Saturation conditions were avoided by means of frequent substitution of fresh water. At predetermined intervals, aliquots of 0.5 mL of release medium were removed and substituted with an equal volume of fresh solution. The release behaviour in vitro of hydrogel loaded with myoglobin was compared with that of hydrogel loaded with prednisolone. All the assays were conducted in triplicate. Release profiles were expressed in cumulative release percentages over time.
# The loaded hydrogels were prepared by solubilising at low temperature, in a 5 ml vial, an exact quantity of model molecule (approximately 4-5 mg) in 2 ml of solution of F127 20% w/v; the solution was then brought to the hydrogel state by placing the hermetically sealed vial at 37° C. The vial, closed at the head with a perforated mesh, was then introduced into the release medium (60 ml bidistilled H2O, T=37° C.) and held under constant and gentle stirring. The release therefore occurred by means of diffusion from the upper surface of the gel to the dissolution medium. […]
row,Molecule,"release profile from Pluronic F127 hydrogel, comparison of the two model molecules"
1,C[C@]12C=CC(=O)C=C1CC[C@@H]1[C@@H]2[C@@H](O)C[C@@]2(C)[C@H]1CC[C@]2(O)C(=O)CO [prednisolone],almost identical for the two different molecules
2,myoglobin,almost identical for the two different molecules
